This assay concerns the target T1, human DHODH (Homo sapiens, UniProt Q02127).
T1 construct: Prof; M. Löffler, Marburg, Germany (gift, not a commercial vendor)
Kind of assay: Inhibition Assay of DHODH activity. The assay is classed as biochemical. As to conditions: recombinant human DHODH; 50 mM TrisHCl, pH 8,0, 30°C; decrease in absorption at 600 nm. As for the experimental part: 4. Inhibition Assay of DHODH activity
The standard assay mixture contained 50 µM decyclo ubichinone, 100 µM dihydroorotate, 60 µM 2,6-dichloroindophenol, as well as 20 mU DHODH. The volume activity of the recombinant enzyme used was 30 U/ml. Measurements were conducted in 50 mM TrisHCl (150 mM KCl, 0,1% Triton X-100, pH 8,0) at 30°C in a final volume of 1 ml. The components were mixed, and the reaction was started by adding dihydroorotate. The course of reaction was followed by spectrophotometrically measuring the decrease in absorption at 600 nm for 2 min. Inhibitory studies were conducted in a standard assay with additional variable amounts of inhibitor. […] These investigations were carried out with recombinant human as well as with recombinant murine DHODH provided by Prof. M. Löffler, Marburg, Germany [M. Löffler, Chem. Biol. Interact.

The results in this text go back to patent EP1541198A1, “Cycloalkyl compounds as anti-inflammatory, immunomodulatory and anti-proliferatory agents” (4SC AG, priority 2003, dated 2005).

pIC50: −log10 of the molar value.

T1 sequence (Q02127 whole entry): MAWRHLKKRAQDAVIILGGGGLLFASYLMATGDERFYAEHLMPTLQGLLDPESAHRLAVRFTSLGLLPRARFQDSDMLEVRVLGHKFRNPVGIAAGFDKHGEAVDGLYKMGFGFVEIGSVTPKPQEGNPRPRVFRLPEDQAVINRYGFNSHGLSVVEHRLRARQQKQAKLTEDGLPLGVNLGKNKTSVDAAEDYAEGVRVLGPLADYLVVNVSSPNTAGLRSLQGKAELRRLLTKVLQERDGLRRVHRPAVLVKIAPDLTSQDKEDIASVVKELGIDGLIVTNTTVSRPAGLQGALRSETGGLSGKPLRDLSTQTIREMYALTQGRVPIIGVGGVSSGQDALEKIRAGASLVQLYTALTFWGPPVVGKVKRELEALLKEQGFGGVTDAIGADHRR

As for `COc1cccc(-c2ccc(NC(=O)[C@@H]3CCC[C@H]3C(=O)O)c(F)c2)c1` (relative stereo) [Example 1, trans 2-(3-Fluoro-3' methoxy-biphenyl-4-ylcarbamoyl)-cyclopentane carboxylic acid], the pIC50 (usually the IC50 on a negative log10 scale, so that one unit is a factor of ten) was 4.70 to 5.30.

In the case of `COc1cccc(-c2ccc(NC(=O)[C@H]3CCC[C@H]3C(=O)O)c(F)c2)c1` (relative stereo) [Example 2, cis 2-(3-Fluoro-3' methoxy-biphenyl-4-ylcarbamoyl)-cyclopentane carboxylic acid], the pIC50 was greater than 5.30.

As to `O=C(O)C1CCCC1C(=O)Nc1c(F)cc(-c2ccccc2Cl)cc1F` (stereo not drawn) [Example 3, 2-(2'-Chloro-3,5-difluoro-biphenyl-4-ylcarbamoyl)-cyclopentane carboxylic acid], the pIC50 is greater than 5.30.

For the molecule `COc1ccc(-c2cc(F)c(NC(=O)C3CCCC3C(=O)O)c(F)c2)c(OC)c1` (stereo not drawn) [Example 4, 2-(3,5-Difluoro-2',4'-dimethoxy-biphenyl-4-ylcarbamoyl)-cyclopentane carboxylic acid], the pIC50 was 4.70 to 5.30.

With `CCOc1cccc(-c2cc(F)c(NC(=O)C3CCCC3C(=O)O)c(F)c2)c1` (stereo not drawn) [Example 5, 2-(3'-Ethoxy-3,5-difluoro-biphenyl-4-ylcarbamoyl)-cyclopentane carboxylic acid], the pIC50 was greater than 5.30.

On to `CCOc1ccccc1-c1cc(F)c(NC(=O)C2CCCC2C(=O)O)c(F)c1` (stereo not drawn) [Example 6, 2-(2'-Ethoxy-3,5-difluoro-biphenyl-4-ylcarbamoyl)-cyclopentane carboxylic acid], for which the pIC50 is 4.70 to 5.30.

As to `O=C(O)C1CCCC1C(=O)Nc1ccc(-c2ccccc2)cc1` (stereo not drawn) [Example 7, 2-(Biphenyl-4-ylcarbamoyl)-cyclopentane carboxylic acid], the pIC50 was greater than 5.30.

Take `O=C(O)C1CCCC1C(=O)Nc1c(F)c(F)c(-c2cccc(OC(F)(F)F)c2)c(F)c1F` (stereo not drawn) [Example 8, 2-(2,3,5,6-Tetrafluoro 3'-trifluoromethoxy-biphenyl-4-ylcarbamoyl)-cyclo-pentane carboxylic acid]: the pIC50 was greater than 5.30.

`O=C(O)C1CCCC1C(=O)Nc1c(F)cc(-c2cccc(OC(F)(F)F)c2)cc1F` (stereo not drawn) [Example 9, 2-(3,5-Difluoro-3'-trifluoromethoxy-biphenyl-4-ylcarbamoyl)-cyclopentane carboxylic acid]: the pIC50 was greater than 5.30.
